Test results: PubChem BioAssay (NCI)
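Cultured in 96-well plates, cells were exposed to test compound for 48 hours across five concentrations. GI50: concentration for 50% inhibition of growth. TGI: concentration producing complete growth inhibition.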 Peptide text beside a SMILES is read from it.

Assays:
Test in all cases: inhibition of tumour cell growth, NCI panel, 48 h
COLO 205 colon = tested on: COLO 205 colon
ACHN renal = tested on: ACHN renal
HCT-116 colon = tested on: HCT-116 colon
HL-60(TB) leukemia = tested on: HL-60(TB) leukemia
HOP-92 NSCLC = tested on: HOP-92 NSCLC
SK-OV-3 ovarian = tested on: SK-OV-3 ovarian
SNB-19 CNS = tested on: SNB-19 CNS
OVCAR-3 ovarian = tested on: OVCAR-3 ovarian
U251 CNS = tested on: U251 CNS
HS 578T breast = tested on: HS 578T breast
LOX IMVI melanoma = tested on: LOX IMVI melanoma
OVCAR-4 ovarian = tested on: OVCAR-4 ovarian
OVCAR-5 ovarian = tested on: OVCAR-5 ovarian
MALME-3M melanoma = tested on: MALME-3M melanoma
MCF7 breast = tested on: MCF7 breast
NCI-H460 lung = tested on: NCI-H460 lung
HOP-62 NSCLC = tested on: HOP-62 NSCLC
HCC-2998 colon = tested on: HCC-2998 colon
A498 renal = tested on: A498 renal
EKVX NSCLC = tested on: EKVX NSCLC
PC-3 prostate = tested on: PC-3 prostate
SK-MEL-5 melanoma = tested on: SK-MEL-5 melanoma
SN12C renal = tested on: SN12C renal
786-0 renal = tested on: 786-0 renal
BT-549 breast = tested on: BT-549 breast
HCT-15 colon = tested on: HCT-15 colon
NCI-H522 lung = tested on: NCI-H522 lung
IGROV1 ovarian = tested on: IGROV1 ovarian
OVCAR-8 ovarian = tested on: OVCAR-8 ovarian
UACC-62 melanoma = tested on: UACC-62 melanoma
SK-MEL-28 melanoma = tested on: SK-MEL-28 melanoma
SR leukemia = tested on: SR leukemia
NCI-H23 lung = tested on: NCI-H23 lung
SF-268 CNS = tested on: SF-268 CNS
DU-145 prostate = tested on: DU-145 prostate
SK-MEL-2 melanoma = tested on: SK-MEL-2 melanoma
RXF 393 renal = tested on: RXF 393 renal
SF-539 CNS = tested on: SF-539 CNS
MDA-MB-435 = tested on: MDA-MB-435
RPMI-8226 leukemia = tested on: RPMI-8226 leukemia
NCI/ADR-RES ovarian = tested on: NCI/ADR-RES ovarian
MDA-MB-231 breast = tested on: MDA-MB-231 breast
CCRF-CEM leukemia = tested on: CCRF-CEM leukemia
KM12 colon = tested on: KM12 colon
UACC-257 melanoma = tested on: UACC-257 melanoma
CAKI-1 renal = tested on: CAKI-1 renal
K-562 leukemia = tested on: K-562 leukemia
HT29 colon = tested on: HT29 colon
SW-620 colon = tested on: SW-620 colon
TK-10 renal = tested on: TK-10 renal
SF-295 CNS = tested on: SF-295 CNS
A549 NSCLC = tested on: A549 NSCLC
M14 melanoma = tested on: M14 melanoma
SNB-75 CNS = tested on: SNB-75 CNS
UO-31 renal = tested on: UO-31 renal
MOLT-4 leukemia = tested on: MOLT-4 leukemia
T-47D breast = tested on: T-47D breast
NCI-H226 lung = tested on: NCI-H226 lung

Cc1cn(Cc2ccccc2CCl)c(=O)n(Cc2ccccc2CCl)c1=O
GI50 (COLO 205 colon): 1.53 µM | TGI (COLO 205 colon): 3.54 µM | GI50 (ACHN renal): 1.66 µM | TGI (ACHN renal): 3.06 µM | GI50 (HCT-116 colon): 1.55 µM | TGI (HCT-116 colon): 3.18 µM | GI50 (HL-60(TB) leukemia): 1.37 µM | TGI (HL-60(TB) leukemia): 3.24 µM | GI50 (HOP-92 NSCLC): 1.86 µM | TGI (HOP-92 NSCLC): 3.62 µM | GI50 (SK-OV-3 ovarian): 3.27 µM | TGI (SK-OV-3 ovarian): 9.62 µM | GI50 (SNB-19 CNS): 2.57 µM | TGI (SNB-19 CNS): 6.66 µM | GI50 (OVCAR-3 ovarian): 1.85 µM | TGI (OVCAR-3 ovarian): 3.65 µM | GI50 (U251 CNS): 1.57 µM | TGI (U251 CNS): 3.1 µM | GI50 (HS 578T breast): 2.65 µM | TGI (HS 578T breast): 15.1 µM | GI50 (LOX IMVI melanoma): 1.16 µM | TGI (LOX IMVI melanoma): 2.59 µM | GI50 (OVCAR-4 ovarian): 1.98 µM | TGI (OVCAR-4 ovarian): 4.83 µM | GI50 (OVCAR-5 ovarian): 2.61 µM | TGI (OVCAR-5 ovarian): 9.69 µM | GI50 (MALME-3M melanoma): 2.03 µM | TGI (MALME-3M melanoma): 4.02 µM | GI50 (MCF7 breast): 1.36 µM | TGI (MCF7 breast): 4.77 µM | GI50 (NCI-H460 lung): 1.98 µM | TGI (NCI-H460 lung): 4.67 µM | GI50 (HOP-62 NSCLC): 2.31 µM | TGI (HOP-62 NSCLC): 4.13 µM | GI50 (HCC-2998 colon): 1.5 µM | TGI (HCC-2998 colon): 2.95 µM | GI50 (A498 renal): 10.6 µM | TGI (A498 renal): 27.4 µM | GI50 (EKVX NSCLC): 2.26 µM | TGI (EKVX NSCLC): 5.13 µM | GI50 (PC-3 prostate): 1.83 µM | TGI (PC-3 prostate): 3.91 µM | GI50 (SK-MEL-5 melanoma): 1.56 µM | TGI (SK-MEL-5 melanoma): 2.93 µM | GI50 (SN12C renal): 2.65 µM | TGI (SN12C renal): 6.97 µM | GI50 (786-0 renal): 1.67 µM | TGI (786-0 renal): 3.39 µM | GI50 (BT-549 breast): 1.85 µM | TGI (BT-549 breast): 3.52 µM | GI50 (HCT-15 colon): 1.96 µM | TGI (HCT-15 colon): 4.43 µM | GI50 (NCI-H522 lung): 1.3 µM | TGI (NCI-H522 lung): 2.94 µM | GI50 (IGROV1 ovarian): 0.53 µM | TGI (IGROV1 ovarian): 2.25 µM | GI50 (OVCAR-8 ovarian): 2.39 µM | TGI (OVCAR-8 ovarian): 5.69 µM | GI50 (UACC-62 melanoma): 1.67 µM | TGI (UACC-62 melanoma): 3.16 µM | GI50 (SK-MEL-28 melanoma): 2.21 µM | TGI (SK-MEL-28 melanoma): 5.49 µM | GI50 (SR leukemia): 0.661 µM | TGI (SR leukemia): 3.25 µM | GI50 (NCI-H23 lung): 2.19 µM | TGI (NCI-H23 lung): 5.43 µM | GI50 (SF-268 CNS): 2.32 µM | TGI (SF-268 CNS): 5.99 µM | GI50 (DU-145 prostate): 1.93 µM | TGI (DU-145 prostate): 3.68 µM | GI50 (SK-MEL-2 melanoma): 1.32 µM | TGI (SK-MEL-2 melanoma): 4.29 µM | GI50 (RXF 393 renal): 1.57 µM | TGI (RXF 393 renal): 3.22 µM | GI50 (SF-539 CNS): 2.47 µM | TGI (SF-539 CNS): 5.65 µM | GI50 (MDA-MB-435): 1.97 µM | TGI (MDA-MB-435): 4.07 µM | GI50 (RPMI-8226 leukemia): 1.93 µM | TGI (RPMI-8226 leukemia): 6.36 µM | GI50 (NCI/ADR-RES ovarian): 2.22 µM | TGI (NCI/ADR-RES ovarian): 6.36 µM | GI50 (MDA-MB-231 breast): 1.86 µM | TGI (MDA-MB-231 breast): 3.57 µM | GI50 (CCRF-CEM leukemia): 1.93 µM | TGI (CCRF-CEM leukemia): 5.5 µM | GI50 (KM12 colon): 1.99 µM | TGI (KM12 colon): 4.48 µM | GI50 (UACC-257 melanoma): 2.25 µM | TGI (UACC-257 melanoma): 4.86 µM | GI50 (CAKI-1 renal): 1.86 µM | TGI (CAKI-1 renal): 3.3 µM | GI50 (K-562 leukemia): 3.19 µM | TGI (K-562 leukemia): 10 µM | GI50 (HT29 colon): 2.04 µM | TGI (HT29 colon): 5.69 µM | GI50 (SW-620 colon): 2.14 µM | TGI (SW-620 colon): 6.03 µM | GI50 (TK-10 renal): 2.92 µM | TGI (TK-10 renal): 6.53 µM | GI50 (SF-295 CNS): 3.52 µM | TGI (SF-295 CNS): 16.7 µM | GI50 (A549 NSCLC): 3.9 µM | TGI (A549 NSCLC): 14.2 µM | GI50 (M14 melanoma): 1.69 µM | TGI (M14 melanoma): 3.28 µM | GI50 (SNB-75 CNS): 1.81 µM | TGI (SNB-75 CNS): 3.79 µM | GI50 (UO-31 renal): 1.65 µM | TGI (UO-31 renal): 3.17 µM

O=C1Nc2ccc(Br)cc2/C1=C/C(=O)c1ccccc1
TGI (COLO 205 colon): 3.97 µM | TGI (ACHN renal): 3.32 µM | TGI (HCT-116 colon): 9.04 µM | TGI (HL-60(TB) leukemia): > 29.1 µM | TGI (HOP-92 NSCLC): 12.5 µM | TGI (SK-OV-3 ovarian): 31.9 µM | TGI (SNB-19 CNS): 37.7 µM | TGI (OVCAR-3 ovarian): 18.2 µM | TGI (U251 CNS): 36.7 µM | TGI (HS 578T breast): > 55.4 µM | TGI (LOX IMVI melanoma): 4.02 µM | TGI (OVCAR-4 ovarian): 30.5 µM | TGI (OVCAR-5 ovarian): 53.6 µM | TGI (MALME-3M melanoma): 16.8 µM | TGI (MCF7 breast): 15.3 µM | TGI (MOLT-4 leukemia): > 26.4 µM | TGI (NCI-H460 lung): 36.9 µM | TGI (HOP-62 NSCLC): 61.2 µM | TGI (HCC-2998 colon): 29 µM | TGI (A498 renal): 34.6 µM | TGI (EKVX NSCLC): 28.6 µM | TGI (PC-3 prostate): 26.9 µM | TGI (SK-MEL-5 melanoma): 41.7 µM | TGI (SN12C renal): 10.5 µM | TGI (786-0 renal): 3.28 µM | TGI (BT-549 breast): 24.6 µM | TGI (HCT-15 colon): 6.51 µM | TGI (NCI-H522 lung): 5.17 µM | TGI (IGROV1 ovarian): 13.3 µM | TGI (OVCAR-8 ovarian): 5.31 µM | TGI (UACC-62 melanoma): 32.9 µM | TGI (SK-MEL-28 melanoma): 32.1 µM | TGI (SR leukemia): > 24.9 µM | TGI (NCI-H23 lung): 23.8 µM | TGI (T-47D breast): 32.1 µM | TGI (SF-268 CNS): 50.8 µM | TGI (DU-145 prostate): 23.8 µM | TGI (SK-MEL-2 melanoma): 32.3 µM | TGI (RXF 393 renal): 5.45 µM | TGI (SF-539 CNS): 13 µM | TGI (MDA-MB-435): 42 µM | TGI (RPMI-8226 leukemia): > 23.6 µM | TGI (MDA-MB-231 breast): 29.5 µM | TGI (CCRF-CEM leukemia): 8.36 µM | TGI (KM12 colon): 23 µM | TGI (UACC-257 melanoma): 29 µM | TGI (CAKI-1 renal): 20 µM | TGI (K-562 leukemia): > 100 µM | TGI (HT29 colon): 3.39 µM | TGI (SW-620 colon): 6.42 µM | TGI (TK-10 renal): 3.7 µM | TGI (SF-295 CNS): 32.5 µM | TGI (A549 NSCLC): > 62.6 µM | TGI (M14 melanoma): 28.1 µM | TGI (NCI-H226 lung): 43.8 µM | TGI (SNB-75 CNS): 32 µM | TGI (UO-31 renal): 6.98 µM

CC(=O)NC(C(=O)NC(C)C(=O)N1CCCC1C(=O)O)C(C)C (stereo not drawn) (Ac-Val-Ala-Pro-OH; configuration not given here)
GI50 (HS 578T breast): 65.6 µg/mL | GI50 (SN12C renal): 46.6 µg/mL | GI50 (SK-MEL-2 melanoma): 83.8 µg/mL | GI50 (CCRF-CEM leukemia): 89.9 µg/mL
